Read-outs that look alike come from different tables or passages of the source.
What was measured:
Type in all cases: cell-based
rASCT2 [1] = biological target: T1, rASCT2 (Rattus norvegicus, UniProt D3ZJ25); assay: Electrophysiology (whole-cell current recording) of transfected HEK293 cells, rASCT2
T1 construct: expressed in transfected cells; host or cells: HEK293 (ATCC CRL-11268), transient transfection
T1 sequence (D3ZJ25 1-555): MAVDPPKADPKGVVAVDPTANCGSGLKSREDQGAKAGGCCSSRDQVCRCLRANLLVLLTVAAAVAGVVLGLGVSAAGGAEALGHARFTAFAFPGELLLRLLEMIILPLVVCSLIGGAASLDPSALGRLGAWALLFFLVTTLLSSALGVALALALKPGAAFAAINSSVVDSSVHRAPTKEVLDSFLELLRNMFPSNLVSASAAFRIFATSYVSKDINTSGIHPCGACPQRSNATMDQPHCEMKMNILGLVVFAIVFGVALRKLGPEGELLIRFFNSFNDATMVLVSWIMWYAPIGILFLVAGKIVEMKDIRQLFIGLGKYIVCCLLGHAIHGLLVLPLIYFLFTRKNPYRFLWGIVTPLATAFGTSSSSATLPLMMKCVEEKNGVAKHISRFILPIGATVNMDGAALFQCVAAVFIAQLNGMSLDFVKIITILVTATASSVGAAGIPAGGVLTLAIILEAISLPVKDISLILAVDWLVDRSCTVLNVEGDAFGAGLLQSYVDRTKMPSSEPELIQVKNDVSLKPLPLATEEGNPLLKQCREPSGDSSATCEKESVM
Protocol: (§1) Human embryonic kidney 293 (HEK293, ATCC CRL-11268) cells were cultured in DMEM media supplemented with 10% (v v) fetal bovine serum (FBS), 2 mM glutamine, 1% penicillin streptomycin solution, 1 mM sodium pyruvate and non-essential amino acids. Cells were maintained at 37° C. in a fully humidified atmosphere containing 5% CO2. rASCT2, hASCT2, hASCT1, EAAT1, EAAT2, EAAC1, EAAT5 and YFP complementary DNAs were each used to transiently transfect HEK293 using POLYPLUS Jet-prime transfection reagent. Cells were analyzed using electrophysiological techniques 24-40 hours after transfection.
(§2) Stock solutions of inhibitor was prepared in dimethyl sulfoxide (DMSO) up to 100 mM. Dilutions to working concentrations were made using external buffer. […] For rASCT2, hASCT2 and hASCT1, external buffer contained 140 mM NaCl, 2 mM MgCl2, 2 mM CaCl2), and 10 mM HEPES, pH 7.40 while internal pipette solution comprised of 130 mM NaSCN, 2 mM MgCl2, 10 mM EGTA, 10 mM HEPES and 10 mM alanine, pH 7.40. For specificity experiments with EAAT1, EAAT2, EAAC1 and EAAT5, internal solution contained 10 mM glutamate instead of alanine. Compounds were applied to HEK293 cells expressing DNA of interest suspended from a current recording electrode in whole cell configuration through a rapid solution exchange device. Cells are immersed in external buffer bath used to dissolve the inhibitors. The open pipette resistance was between 3 and 6 MΩ. Series resistance was not compensated in these experiments due to relatively small currents. Currents traces were recorded using an Adams and List EPC7 amplifier and digitized using a Molecular Devices Digidata A/D converter.
(§3) Linear and nonlinear curve fitting of the experimental data were analyzed using MicroCal Origin software. Nonlinear dose-response relationships were fitted with a Michaelis-Menten-like equation to obtain apparent Ki values in the absence of substrate (see TABLE 2 for Ki values). The figures show representative current traces and dose-response curves for hACST2 and rASCT2, used to obtain Ki values in TABLE 2 for compound SN 40. At least four experiments were performed with at least three different cells. Error bars in all graphs, e.g., in FIG. 1B and FIG. 1C and tables (Ki values) represent mean±SD.

EAAT5 = biological target: T2, EAAT5 (Homo sapiens, UniProt O00341); assay: Electrophysiology specificity experiment in transfected HEK293 cells, EAAT5; conditions: apparent Ki, HEK293, internal solution 10 mM glutamate, mean ± SD
T2 construct: expressed in transfected cells; host or cells: HEK293 (ATCC CRL-11268), transient transfection
Protocol: as §1, §2, §3

hASCT1 = biological target: T3, hASCT1 (Homo sapiens, UniProt P43007); assay: Electrophysiology (whole-cell current recording) of transfected HEK293 cells, hASCT1
T3 construct: expressed in transfected cells; host or cells: HEK293 (ATCC CRL-11268), transient transfection
T3 sequence (P43007 1-532): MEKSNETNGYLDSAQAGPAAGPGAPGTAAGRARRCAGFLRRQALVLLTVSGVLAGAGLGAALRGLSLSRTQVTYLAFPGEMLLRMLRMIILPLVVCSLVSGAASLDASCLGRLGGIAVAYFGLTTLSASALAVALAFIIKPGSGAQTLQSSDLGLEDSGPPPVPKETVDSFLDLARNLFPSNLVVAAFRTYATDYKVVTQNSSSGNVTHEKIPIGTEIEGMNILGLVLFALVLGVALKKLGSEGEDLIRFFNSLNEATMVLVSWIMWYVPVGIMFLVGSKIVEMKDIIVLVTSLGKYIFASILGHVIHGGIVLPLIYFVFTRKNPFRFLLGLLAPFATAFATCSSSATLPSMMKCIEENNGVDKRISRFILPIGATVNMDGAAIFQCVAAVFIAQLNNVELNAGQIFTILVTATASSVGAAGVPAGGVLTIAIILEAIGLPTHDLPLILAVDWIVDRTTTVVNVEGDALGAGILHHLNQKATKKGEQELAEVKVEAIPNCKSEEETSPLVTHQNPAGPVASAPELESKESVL
Protocol: as §1, §2, §3

EAAT1 = biological target: T4, EAAT1 (Homo sapiens, UniProt P43003); assay: Electrophysiology specificity experiment in transfected HEK293 cells, EAAT1; conditions: apparent Ki, HEK293, internal solution 10 mM glutamate, mean ± SD
T4 construct: expressed in transfected cells; host or cells: HEK293 (ATCC CRL-11268), transient transfection
Protocol: as §1, §2, §3

EAAT2 = biological target: T5, EAAT2 (Homo sapiens, UniProt P43004); assay: Electrophysiology specificity experiment in transfected HEK293 cells, EAAT2; conditions: apparent Ki, HEK293, internal solution 10 mM glutamate, mean ± SD; read-out: Ki EAAT2
T5 construct: expressed in transfected cells; host or cells: HEK293 (ATCC CRL-11268), transient transfection
Protocol: as §1, §2, §3

hASCT2 [2] = biological target: T6, hASCT2 (Homo sapiens, UniProt Q15758); assay: Electrophysiology (whole-cell current recording) of transfected HEK293 cells, hASCT2
T6 construct: expressed in transfected cells; host or cells: HEK293 (ATCC CRL-11268), transient transfection
T6 sequence (Q15758 1-541): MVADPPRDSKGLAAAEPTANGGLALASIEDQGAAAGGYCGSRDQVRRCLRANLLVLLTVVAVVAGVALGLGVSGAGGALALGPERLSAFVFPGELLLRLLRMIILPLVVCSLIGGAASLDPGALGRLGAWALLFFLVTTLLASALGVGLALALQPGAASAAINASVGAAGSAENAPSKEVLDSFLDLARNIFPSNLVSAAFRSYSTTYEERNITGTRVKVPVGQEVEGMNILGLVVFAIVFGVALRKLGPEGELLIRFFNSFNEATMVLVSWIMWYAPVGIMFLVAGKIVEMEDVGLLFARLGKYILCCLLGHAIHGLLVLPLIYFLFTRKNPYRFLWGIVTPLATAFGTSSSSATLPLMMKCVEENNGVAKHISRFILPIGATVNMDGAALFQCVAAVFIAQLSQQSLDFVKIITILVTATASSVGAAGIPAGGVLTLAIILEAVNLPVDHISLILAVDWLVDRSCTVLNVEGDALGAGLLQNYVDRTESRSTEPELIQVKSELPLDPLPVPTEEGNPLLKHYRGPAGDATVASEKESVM
Protocol: as §1, §2, §3

EAAC1 = biological target: T7, EAAC1 (UniProt P51907); assay: Electrophysiology specificity experiment in transfected HEK293 cells, EAAC1; conditions: apparent Ki, HEK293, internal solution 10 mM glutamate, mean ± SD
T7 construct: Ki EAAC1; other: apparent Ki, HEK293, internal solution 10 mM glutamate, mean ± SD
T7 sequence (P51907 1-523): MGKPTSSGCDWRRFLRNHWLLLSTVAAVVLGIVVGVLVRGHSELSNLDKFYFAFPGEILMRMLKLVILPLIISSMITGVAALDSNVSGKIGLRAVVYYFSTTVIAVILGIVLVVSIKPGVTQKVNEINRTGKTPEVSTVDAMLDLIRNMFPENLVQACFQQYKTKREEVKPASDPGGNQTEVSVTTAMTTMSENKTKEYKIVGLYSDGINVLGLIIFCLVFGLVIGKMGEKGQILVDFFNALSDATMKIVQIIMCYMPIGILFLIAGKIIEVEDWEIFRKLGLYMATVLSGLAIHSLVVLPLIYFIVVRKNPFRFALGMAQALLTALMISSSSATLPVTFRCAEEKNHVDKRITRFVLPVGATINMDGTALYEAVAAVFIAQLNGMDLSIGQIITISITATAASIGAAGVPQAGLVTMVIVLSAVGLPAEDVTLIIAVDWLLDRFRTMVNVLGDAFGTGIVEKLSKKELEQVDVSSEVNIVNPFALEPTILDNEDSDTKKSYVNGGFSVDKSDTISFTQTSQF
Protocol: Cells were maintained at 37° C. in a fully humidified atmosphere containing 5% CO2. rASCT2, hASCT2, hASCT1, EAAT1, EAAT2, EAAC1, EAAT5 and YFP complementary DNAs were each used to transiently transfect HEK293 using POLYPLUS Jet-prime transfection reagent. Cells were analyzed using electrophysiological techniques 24-40 hours after transfection.
as §2
as §3, with “The figures show representative current traces and dose-response curves for hACST2 and rASCT2, used to obtain Ki values in TABLE 2 for compound SN 40.” left out

rASCT2 [3] = biological target: T1, rASCT2; assay: Competition experiment with alanine, rASCT2; conditions: second entry of the cell; for Ki: read-out: Competition Expt (h/rASCT2 Ki): rASCT2 Ki
hASCT2 [4] = biological target: T6, hASCT2; assay: Competition experiment with alanine, hASCT2; conditions: first entry of the cell; for Ki: read-out: Competition Expt (h/rASCT2 Ki): hASCT2 Ki
[5] = apparent Ki in the absence of substrate, HEK293, mean ± SD, read-out: Ki rASCT2
[6] = apparent Ki in the absence of substrate, HEK293, mean ± SD, read-out: Ki hASCT2
[7] = Table 3, dihydroxyproline derivatives, read-out: Ki All DNA: hASCT1
[8] = Table 3, dihydroxyproline derivatives

T5 sequence (P43004 whole entry, species assumed): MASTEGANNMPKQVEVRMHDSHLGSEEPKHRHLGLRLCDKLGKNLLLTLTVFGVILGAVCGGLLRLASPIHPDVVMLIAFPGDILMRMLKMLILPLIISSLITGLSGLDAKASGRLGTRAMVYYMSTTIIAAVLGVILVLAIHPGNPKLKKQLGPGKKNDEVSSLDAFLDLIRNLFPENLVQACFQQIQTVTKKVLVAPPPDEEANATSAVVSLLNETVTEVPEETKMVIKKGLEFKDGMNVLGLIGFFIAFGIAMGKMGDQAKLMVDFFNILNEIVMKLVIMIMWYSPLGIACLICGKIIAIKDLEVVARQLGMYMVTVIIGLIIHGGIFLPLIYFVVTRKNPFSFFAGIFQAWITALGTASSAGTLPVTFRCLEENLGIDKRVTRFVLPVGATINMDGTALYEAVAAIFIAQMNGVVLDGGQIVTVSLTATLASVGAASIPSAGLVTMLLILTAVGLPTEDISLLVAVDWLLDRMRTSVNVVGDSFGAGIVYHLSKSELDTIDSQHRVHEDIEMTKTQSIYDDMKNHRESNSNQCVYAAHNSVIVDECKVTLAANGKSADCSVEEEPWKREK
T4 sequence (P43003 whole entry, species assumed): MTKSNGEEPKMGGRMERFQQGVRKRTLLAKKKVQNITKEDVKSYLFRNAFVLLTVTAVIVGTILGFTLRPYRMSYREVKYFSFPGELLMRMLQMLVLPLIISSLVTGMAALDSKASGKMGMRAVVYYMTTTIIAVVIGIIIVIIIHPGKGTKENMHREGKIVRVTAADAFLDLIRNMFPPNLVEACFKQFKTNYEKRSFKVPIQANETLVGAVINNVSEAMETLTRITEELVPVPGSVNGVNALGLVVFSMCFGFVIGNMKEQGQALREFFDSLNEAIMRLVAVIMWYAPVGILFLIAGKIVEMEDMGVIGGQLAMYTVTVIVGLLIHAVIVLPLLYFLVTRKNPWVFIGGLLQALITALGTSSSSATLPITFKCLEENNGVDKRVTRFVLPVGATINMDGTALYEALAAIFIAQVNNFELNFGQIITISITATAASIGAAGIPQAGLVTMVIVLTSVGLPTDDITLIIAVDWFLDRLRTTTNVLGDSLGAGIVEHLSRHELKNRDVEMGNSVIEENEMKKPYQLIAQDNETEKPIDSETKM
T2 sequence (O00341 whole entry, species assumed): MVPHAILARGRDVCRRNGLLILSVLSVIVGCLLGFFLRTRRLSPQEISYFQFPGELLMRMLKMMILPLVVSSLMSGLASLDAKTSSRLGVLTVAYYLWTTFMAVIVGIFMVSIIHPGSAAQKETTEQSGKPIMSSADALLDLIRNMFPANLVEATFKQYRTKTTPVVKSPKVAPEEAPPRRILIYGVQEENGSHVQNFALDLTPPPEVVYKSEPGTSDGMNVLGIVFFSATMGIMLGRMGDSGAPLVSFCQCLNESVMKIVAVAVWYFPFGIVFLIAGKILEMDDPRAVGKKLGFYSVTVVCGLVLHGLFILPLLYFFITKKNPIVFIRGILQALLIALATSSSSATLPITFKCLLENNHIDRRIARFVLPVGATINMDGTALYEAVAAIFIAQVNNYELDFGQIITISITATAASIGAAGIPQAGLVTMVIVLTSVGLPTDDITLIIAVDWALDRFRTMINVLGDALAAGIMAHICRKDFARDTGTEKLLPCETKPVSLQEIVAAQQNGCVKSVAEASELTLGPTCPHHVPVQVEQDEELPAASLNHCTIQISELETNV

Structure (SMILES) | Ki (rASCT2 [1]; [5]) | Ki (EAAT5) | Ki (EAAT1) | Ki (EAAT2) | Ki (hASCT2 [2]; [6]) | Ki (hASCT1; [7]) | Competition Expt % block (given as a decimal): rASCT2 (rASCT2 [3]; 0.5 mM ala, decimal fraction) | Ki (rASCT2 [3]; 0.5 mM ala) | Competition Expt % block (given as a decimal): hASCT2 (hASCT2 [4]; 0.5 mM ala, decimal fraction) | Ki (hASCT2 [4]; 0.5 mM ala) | other results
O=C(O[C@@H]1CN[C@H](C(=O)O)C1)c1ccc(C(=O)c2ccccc2)cc1 [SN 12] | 6.66 ± 1.2 µM | 13.8 ± 2.7 µM | 21.2 ± 4.5 µM | 15.4 ± 4.9 µM | 21.4 ± 3.2 µM | – | – | – | – | – | Ki (hASCT1; apparent Ki in the absence of substrate, HEK293, mean ± SD, read-out: Ki hASCT1): 6.86 ± 1.1 µM
O=C(O)[C@@H]1C[C@H](NCc2ccc(-c3ccccc3)cc2)CN1 [SN 40] | 7.29 ± 1.8 µM | 5.55 ± 0.7 µM | 2.94 ± 0.4 µM | 5.55 ± 1.7 µM | 2.42 ± 0.1 µM | – | – | – | – | – | Ki (EAAC1): 24.4 ± 2.5 µM
O=C(OC[C@]1(O)CN[C@H](C(=O)O)C1)c1ccc(-c2ccccc2)cc1 [SN65] | – | – | – | – | – | 59.2 µM | 0.4 | 170 µM | 0.8 | 52.2 µM | Ki (rASCT2 [1]; Table 3, dihydroxyproline derivatives, read-out: Ki All DNA: rASCT2): 25.8 µM; Ki (hASCT2 [2]; Table 3, dihydroxyproline derivatives, read-out: Ki All DNA: hASCT2): 30.5 µM
O=C(O[C@@]1(CO)CN[C@H](C(=O)O)C1)c1ccc(-c2ccccc2)cc1 [SN77] | – | – | – | – | – | – | 0.5 | 12.9 µM | 0.5 | 20.3 µM | –
O=C(OC[C@@]1(O)CN[C@H](C(=O)O)C1)c1ccc(-c2ccc(F)cc2)cc1 [SN58] | – | – | – | – | – | 3.06 µM | – | – | – | – | Ki All DNA: rASCT2 (rASCT2 [1]; [8]): Very Low; Ki All DNA: hASCT2 (hASCT2 [2]; [8]): Very Low; Competition Expt % block (given as a decimal): rASCT2 (rASCT2 [3]; 1 mM ala): full; Ki (rASCT2 [3]; 1 mM ala): 12.8 µM; Competition Expt % block (given as a decimal): hASCT2 (hASCT2 [4]; 1 mM ala): full; Ki (hASCT2 [4]; 1 mM ala): 19.2 µM

Reference: patent US20230416199A1, “INHIBITORS OF AMINO ACID TRANSPORT” (ICAHN SCHOOL OF MEDICINE AT MOUNT SINAI, priority 2020, published 2023)
